This note sets out measurements from US8877801B2, “Compounds and compositions as selective estrogen receptor degraders” (Novartis AG, priority 2013, dated 2014).

Like-named read-outs stand apart in the source and are kept apart here. Bounds are passed on as bounds.

For one assay, the target named is T1, ER (Homo sapiens, UniProt P03372).
T1 construct: transfected in MCF7 cells (containing endogenous ER); endogenous in cells; host or cells: MCF7 cells
T1 sequence (P03372 1-595): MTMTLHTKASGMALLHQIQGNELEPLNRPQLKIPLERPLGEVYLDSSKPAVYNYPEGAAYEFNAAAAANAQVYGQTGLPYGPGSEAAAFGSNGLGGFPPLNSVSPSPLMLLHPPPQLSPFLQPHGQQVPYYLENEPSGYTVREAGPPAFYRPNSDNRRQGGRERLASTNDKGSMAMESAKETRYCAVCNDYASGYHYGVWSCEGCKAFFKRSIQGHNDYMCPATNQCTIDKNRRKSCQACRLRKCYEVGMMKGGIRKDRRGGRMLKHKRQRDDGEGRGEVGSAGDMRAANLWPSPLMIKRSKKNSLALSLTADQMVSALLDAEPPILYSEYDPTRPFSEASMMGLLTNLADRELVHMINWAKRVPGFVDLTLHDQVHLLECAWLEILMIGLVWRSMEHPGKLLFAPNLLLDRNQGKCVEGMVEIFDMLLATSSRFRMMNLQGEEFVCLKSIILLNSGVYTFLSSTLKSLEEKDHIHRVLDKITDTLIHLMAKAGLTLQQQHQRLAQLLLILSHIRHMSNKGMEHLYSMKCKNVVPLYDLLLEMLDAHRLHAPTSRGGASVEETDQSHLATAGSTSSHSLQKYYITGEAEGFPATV
Nature of the assay: ER transcription assay (MCF7 cells), ERE-luciferase reporter. The format is cell-based. From the text:
ER Transcription Assay (MCF7 Cells)
The ER transcription assay is a reporter assay that is based on the ability of ER to induce transcription from a luciferase reporter gene containing estrogen response elements (EREs) in the promoter/enhancer region. When the reporter gene is transfected in MCF7 cells (containing endogenous ER), transcription is reflected by the level of luciferase expression.
A day before transfection, cells are split into a T75 flask at a cell density of 300,000 cells/mL (10 mL total) and allowed to attach overnight in a humidified CO2 incubator at 37° C.
Approximately 20 ug DNA is mixed in OptiMEM (Invitrogen) to a total volume of 650 μL. Following incubation, the OptiMEM-DNA mixture is added to the OptiMEM-Lipofectin mix and incubated for 15 minutes at 37° C. The DNA-Lipofectin mixture is then added directly to the T75 flask and the flask is returned to the incubator.
After overnight incubation, compound is added to individual wells of a 96-well plate in a 10 μL volume of media at 10× concentration along with 17β estradiol whose final concentration is 0.1 nM. Normally, DMSO (used as a vehicle) is included to achieve a final concentration of 0.1% when added to the cells. Transfected cells are trypsinized, resuspended in DMEM/F12/10% charcoal-stripped serum and added to the 96-well plate at 25,000 cells/well in 90 μL of media. The plate is then returned to the incubator for 24 hours.
After incubation with compounds for 24 hours, Firefly and Renilla luciferase activities are measured to determine ER transcriptional activity. Media is removed from 96-well plates by decanting and blotting on paper towels.
One second total read time after a one second delay.
One second total read time after one second delay. If Firefly luciferase signal is high, Renilla assay must be done an hour after the Firefly assay due to incomplete squelching of Firefly signal.
(§1) The data describing the antagonist and degradation properties for the examples is compiled in table 10. The column titled MCF7 IC50 reports the inflection point of the inhibition of transcription in MCF7 cells as described above. Percentage ERα remaining reports the remaining ERα protein measured at 10 μM concentration of the ligand as described above. The column ERα IC50 reports the inflection point of the degradation in response to the ligand concentration.

The next assay deals with T2, ERα (Homo sapiens, UniProt P03372).
T2 construct: transfected in MCF7 cells (containing endogenous ER); endogenous in cells; host or cells: MCF7 cells
T2 sequence (P03372 1-595): T1 sequence (P03372 1-595)
Description: ERα degradation (MCF7 cells), in-cell Western. The following applies: for % ERα remaining: 10 μM concentration of the ligand, MCF7 cells, 18-24 hours, relative to DMSO control. It is filed as cell-based. The procedure: ERα Degradation (MCF7 Cells)
as §1

Setting [1] is: comparison of groups at the X position, read-out: IC50 MCF7 μM (antagonist activity).
Where [2] appears, read: comparison of groups at the X position.
[3] abbreviates: MCF7 cells, ER reporter gene, 0.1 nM 17β estradiol, 24 hours, read-out: MCF7 IC50 (inflection point of the inhibition of transcription in MCF7 cells).
The mark [4] stands for this setting: comparison of bond order between the phenyl and -C(O)OH, read-out: SERD IC50 MCF7 μM (antagonist activity).
The mark [5] stands for this setting: comparison of bond order between the phenyl and -C(O)OH.

For the molecule `O=C(O)/C=C/c1ccc(-c2c(-c3ccc(O)cc3)sc3cc(O)ccc23)cc1` [reference compound], the IC50 on ER (setting [1]) was > 10000 nM. Moreover, the “ER Percentage remaining (degradation potential)” value (“ER Percentage remaining” below) at ERα (setting [2]) was 76%.

As to `CNC(=O)/C=C/c1ccc(Oc2c(-c3ccc(O)cc3)sc3cc(O)ccc23)cn1` [Example 71, (E)-3-(5-((6-hydroxy-2-(4-hydroxyphenyl)benzo[b]thiophen-3-yl)oxy)pyridin-2-yl)-N-methylacrylamide], at ER (setting [3]), the IC50 is 53 nM. Besides, the “% ERα remaining” value at ERα stood at 39%.

For `O=C(O)c1ccc(Oc2c(-c3ccc(O)cc3)sc3cc(O)ccc23)cc1` [reference compound], the IC50 at ER (setting [4]) is ≥ 10000 nM. Further, the “ER Percentage remaining” value at ERα (setting [5]) came to 57%.

For `Cc1cc(F)ccc1-c1sc2cc(O)ccc2c1Oc1ccc(/C=C/c2nnc(C3CC3)o2)cc1` [Example 76, (E)-3-(4-(2-(5-cyclopropyl-1,3,4-oxadiazol-2-yl)vinyl)phenoxy)-2-(4-fluoro-2-methylphenyl)benzo[b]-thiophen-6-ol], the IC50 on ER (setting [3]) is 16 nM. The “% ERα remaining” value on ERα worked out at 36%.

With `O=C(O)/C=C/c1ccc(Oc2c(-c3ccc(O)cc3)sc3cc(O)ccc23)cc1` [Example 2, (E)-3-(4-((6-hydroxy-2-(4-hydroxyphenyl)benzo[b]thiophen-3-yl)oxy)phenyl)acrylic acid], the IC50 at ER (setting [3]), at ER (setting [4]) and on ER (setting [1]) was 748 nM throughout. The “ER Percentage remaining” value at ERα (setting [5]) and at ERα (setting [2]) was 41% each time.

Take `Oc1ccc(-c2sc3cc(O)ccc3c2Oc2ccc(/C=C/c3c[nH]cn3)cc2)cc1` [Example 72, (E)-3-(4-(2-(1H-imidazol-4-yl)vinyl)phenoxy)-2-(4-hydroxyphenyl)benzo[b]thiophen-6-ol]: the IC50 on ER (setting [3]) is 125 nM. Further, at ERα, the “% ERα remaining” value is 47%.

In the case of `Cn1cnc(/C=C/c2ccc(Oc3c(-c4ccc(O)cc4)sc4cc(O)ccc34)cc2)c1` [Example 73, (E)-2-(4-hydroxyphenyl)-3-(4-(2-(1-methyl-1H-imidazol-4-yl)vinyl)phenoxy)-benzo[b]thiophen-6-ol], the IC50 on ER (setting [3]) stood at 58 nM. Also, at ERα, the “% ERα remaining” value was 32%.

For the molecule `CNC(=O)/C=C/c1ccc(Oc2c(-c3ccc(C(F)(F)F)cc3)sc3cc(O)ccc23)cc1` [Example 70, (E)-3-(4-((6-hydroxy-2-(4-(trifluoromethyl)phenyl)benzo[b]thiophen-3-yl)oxy)phenyl)-N-methylacrylamide], the IC50 on ER (setting [3]) was 269 nM. The “% ERα remaining” value at ERα is 41%.

`COc1cc(Oc2c(-c3ccc(O)cc3)sc3cc(O)ccc23)ccc1/C=C/C(=O)O` [Example 58, (E)-3-(4-((6-hydroxy-2-(4-hydroxyphenyl)-benzo[b]thiophen-3-yl)oxy)-2-methoxyphenyl)acrylic acid]: on ER (setting [3]), the concentration for half-maximal inhibition (IC50) was 5020 nM. In addition, the “% ERα remaining” value on ERα worked out at 35%.

Take `CNC(=O)/C=C/c1ccc(Oc2c(-c3ccc(O)c(F)c3)sc3cc(O)ccc23)cc1` [Example 69, (E)-3-(4-((2-(3-fluoro-4-hydroxyphenyl)-6-hydroxybenzo[b]thiophen-3-yl)oxy)phenyl)-N-methylacrylamide]: the concentration for half-maximal inhibition (IC50) on ER (setting [3]) is 41 nM. The “% ERα remaining” value on ERα was determined as 32%.

As to `O=C(O)/C=C/c1ccc(C(=O)c2c(-c3ccc(O)cc3)sc3cc(O)ccc23)cc1` [reference compound], the IC50 on ER (setting [1]) was > 10000 nM. Moreover, at ERα (setting [2]), the “ER Percentage remaining” value was determined as 60%.

Regarding `O=C(O)CCCc1ccc(Oc2c(-c3ccc(O)cc3)sc3cc(O)ccc23)cc1` [reference compound], on ER (setting [4]), the IC50 was ≥ 10000 nM. Further, the “ER Percentage remaining” value at ERα (setting [5]) is listed as 55%.

`CCCn1cnc(/C=C/c2ccc(Oc3c(-c4ccc(O)cc4)sc4cc(O)ccc34)cc2)c1` [Example 74, (E)-2-(4-hydroxyphenyl)-3-(4-(2-(1-propyl-1H-imidazol-4-yl)vinyl)phenoxy)benzo [b]thiophen-6-ol]: at ER (setting [3]), the IC50 was found to be 108 nM. On ERα, the “% ERα remaining” value turned out to be 41%.

Turning to `CCCn1cncc1/C=C/c1ccc(Oc2c(-c3ccc(O)cc3)sc3cc(O)ccc23)cc1` [Example 75, (E)-2-(4-hydroxyphenyl)-3-(4-(2-(1-propyl-1H-imidazol-5-yl)vinyl)phenoxy)benzo[b] thiophen-6-ol], the IC50 at ER (setting [3]) stood at 10 nM. In addition, the “% ERα remaining” value on ERα was 42%.

In the case of `COC(=O)/C=C/c1ccc(Oc2c(-c3ccc(O)cc3)sc3c(F)c(O)c(F)cc23)cc1` [Example 37, (E)-methyl 3-(4-((5,7-difluoro-6-hydroxy-2-(4-hydroxyphenyl)-benzo[b]thiophen-3-yl)oxy)phenyl)acrylate], the IC50 at ER (setting [3]) is 41 nM.

With `Cc1cc(F)ccc1-c1sc2cc(O)ccc2c1Oc1ccc(/C=C/c2n[nH]c(=O)o2)cc1` [Example 48, (E)-5-(4-((2-(4-fluoro-2-methylphenyl)-6-hydroxybenzo[b]thiophen-3-yl)oxy)styryl)-1,3,4-oxadiazol-2(3H)-one], at ER (setting [3]), the concentration for half-maximal inhibition (IC50) is 422 nM.

Turning to `CC(C)c1ccccc1-c1sc2cc(O)ccc2c1Oc1ccc(/C=C/C(=O)O)cc1` [Example 4, (E)-3-(4-((6-hydroxy-2-(2-isopropylphenyl)benzo[b]thiophen-3-yl)oxy)phenyl)acrylic acid], at ER (setting [3]), the IC50 was determined as 6 nM.

For the molecule `O=C(O)/C=C/c1ccc(Oc2c(-c3ccc(Cl)cc3)sc3cc(O)ccc23)cc1` [Example 6, (E)-3-(4-((2-(4-chlorophenyl)-6-hydroxybenzo[b]-thiophen-3-yl)oxy)phenyl)-acrylic acid], the IC50 on ER (setting [3]) came to 3100 nM.
